Calls of active or inactive are those of the source.

Among the targets are Cytochrome P450 2C9 (Homo sapiens, UniProt P11712); Cytochrome P450 2D6 (Homo sapiens, UniProt P10635); Cytochrome P450 3A4 (Homo sapiens, UniProt P08684).
The target of another data set is Cytochrome P450 2C19 (Homo sapiens, UniProt P33261). The data set can be described thus: Cytochrome panel assay with activity outcomes. Panel member name: p450-cyp2c19 Compounds with AC50 equal or less than 10 uM are considered active. Type of data set: functional.
Cytochrome P450 2C19, sequence (P33261 whole entry): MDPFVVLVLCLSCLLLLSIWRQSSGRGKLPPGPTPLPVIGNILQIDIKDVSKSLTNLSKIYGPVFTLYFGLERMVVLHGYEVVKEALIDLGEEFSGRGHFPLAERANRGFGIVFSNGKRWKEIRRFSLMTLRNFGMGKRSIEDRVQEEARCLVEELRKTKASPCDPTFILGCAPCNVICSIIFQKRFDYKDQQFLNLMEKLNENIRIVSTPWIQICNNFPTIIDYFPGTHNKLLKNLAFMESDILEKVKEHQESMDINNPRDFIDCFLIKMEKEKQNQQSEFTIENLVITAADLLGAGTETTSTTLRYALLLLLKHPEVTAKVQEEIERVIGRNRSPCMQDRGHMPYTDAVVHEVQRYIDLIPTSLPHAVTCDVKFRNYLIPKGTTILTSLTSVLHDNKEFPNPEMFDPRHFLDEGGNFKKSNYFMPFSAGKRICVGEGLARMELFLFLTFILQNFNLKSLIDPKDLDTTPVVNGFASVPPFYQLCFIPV
Data set [1] can be described thus: Luminescence Cell-Based Dose Confirmation HTS to Identify Inhibitors of Platelet Dense Granule Release. [Related pubchem assays: 1663 (Primary HTS), 1678 (Summary of Project)]. Type of data set: functional.
The target in data set [2] is Luciferin 4-monooxygenase (Photinus pyralis, UniProt P08659). The data set can be described thus: inhibition of purified Photinus pyralis luciferase – biochemical, luminescence, dose response (AID 1891).
Luciferin 4-monooxygenase, sequence (P08659 whole entry): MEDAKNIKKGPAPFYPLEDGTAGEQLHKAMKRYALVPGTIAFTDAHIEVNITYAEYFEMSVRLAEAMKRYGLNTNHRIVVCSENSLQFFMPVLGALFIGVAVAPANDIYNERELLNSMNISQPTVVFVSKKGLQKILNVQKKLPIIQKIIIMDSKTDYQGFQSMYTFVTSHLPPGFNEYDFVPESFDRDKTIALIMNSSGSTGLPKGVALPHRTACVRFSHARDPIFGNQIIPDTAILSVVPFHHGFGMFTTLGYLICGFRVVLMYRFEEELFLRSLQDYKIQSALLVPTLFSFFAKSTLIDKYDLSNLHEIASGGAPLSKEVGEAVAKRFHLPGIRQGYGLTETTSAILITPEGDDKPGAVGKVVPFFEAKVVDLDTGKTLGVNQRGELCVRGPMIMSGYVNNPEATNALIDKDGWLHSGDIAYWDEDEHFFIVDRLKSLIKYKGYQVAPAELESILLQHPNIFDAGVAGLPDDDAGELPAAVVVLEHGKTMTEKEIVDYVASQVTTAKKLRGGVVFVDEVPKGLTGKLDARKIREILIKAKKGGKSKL
Data set [3] concerns the target T1, Calpain-2 catalytic subunit (Sus scrofa, UniProt P43367).
T1 sequence (P43367 whole entry): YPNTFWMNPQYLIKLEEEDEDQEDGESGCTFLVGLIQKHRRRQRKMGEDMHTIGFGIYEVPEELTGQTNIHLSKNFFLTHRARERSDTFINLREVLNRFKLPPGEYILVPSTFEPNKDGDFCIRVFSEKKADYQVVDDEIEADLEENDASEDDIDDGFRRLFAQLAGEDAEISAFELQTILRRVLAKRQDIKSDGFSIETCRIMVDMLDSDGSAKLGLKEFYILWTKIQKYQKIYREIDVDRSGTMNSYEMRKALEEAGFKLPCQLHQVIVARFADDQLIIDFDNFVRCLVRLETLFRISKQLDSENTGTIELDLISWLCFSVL
The data set can be described thus: m-calpain protease blockers, concentration series – biochemical, fluorogenic peptide substrate, dose response (AID 1420). Type of data set: functional.

For a further data set, the target named is Nonstructural protein 1 (Influenza A virus, UniProt Q194T2). In kind it is functional, Influenza A virus (A/California/07/2009(H1N1)).
Nonstructural protein 1, sequence (Q194T2 whole entry): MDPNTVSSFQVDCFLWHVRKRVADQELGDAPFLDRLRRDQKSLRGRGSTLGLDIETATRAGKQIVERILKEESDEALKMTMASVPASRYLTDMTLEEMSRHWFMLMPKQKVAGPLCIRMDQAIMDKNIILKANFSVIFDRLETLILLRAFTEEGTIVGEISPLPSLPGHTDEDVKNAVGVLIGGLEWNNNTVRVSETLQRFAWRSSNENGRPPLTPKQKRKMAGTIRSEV
The target in a further data set is T2, Cytochrome P450 1A2 (Homo sapiens, UniProt P05177).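 Further: PubChem cytochrome P450 panel assay, CYP1A2 panel member.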
T2 sequence (P05177 whole entry): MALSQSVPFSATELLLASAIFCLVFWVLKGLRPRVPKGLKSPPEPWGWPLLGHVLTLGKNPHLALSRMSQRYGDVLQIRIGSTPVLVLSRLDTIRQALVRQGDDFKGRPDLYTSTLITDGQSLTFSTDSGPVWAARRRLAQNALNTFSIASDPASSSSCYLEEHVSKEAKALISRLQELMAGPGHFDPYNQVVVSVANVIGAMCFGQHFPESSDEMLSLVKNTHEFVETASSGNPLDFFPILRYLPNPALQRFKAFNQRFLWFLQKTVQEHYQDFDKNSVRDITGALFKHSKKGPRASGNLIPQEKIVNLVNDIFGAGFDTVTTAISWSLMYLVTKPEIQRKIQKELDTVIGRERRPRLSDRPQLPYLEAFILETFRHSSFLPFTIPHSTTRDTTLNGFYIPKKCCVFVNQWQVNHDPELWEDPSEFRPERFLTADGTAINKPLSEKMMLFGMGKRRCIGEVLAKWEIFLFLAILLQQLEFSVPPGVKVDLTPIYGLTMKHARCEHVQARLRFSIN

Data set [4] in a line: Trypanosoma cruzi growth suppression in host cells – NIH3T3 host cells, beta-gal luminescence, confirmation (AID 2044).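 Further: intracellular parasites grown in NIH/3T3 mouse fibroblasts as host cells; luminescent beta-galactosidase reporter signal from transgenic T. cruzi replicating inside host cells; inhibitors lower the luminescence signal.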 Type of data set: functional, cell-based.
Another data set can be described thus: cells. In kind it is functional.
A short description of data set [5]: NIH3T3 cell viability loss – ATP luminescence, mouse fibroblasts, counter-screen, dose response (AID 2010).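 Further: cells exposed to compound for about 90 hours before reading.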 Type of data set: functional, cell-based. The following applies: NIH3T3. Background: The purpose of a counterscreen is to sort out artefacts and off-target activity.
Data set [6] deals with T3, Ubiquitin-conjugating enzyme E2 N (Homo sapiens, UniProt P61088).
T3 sequence (P61088 whole entry): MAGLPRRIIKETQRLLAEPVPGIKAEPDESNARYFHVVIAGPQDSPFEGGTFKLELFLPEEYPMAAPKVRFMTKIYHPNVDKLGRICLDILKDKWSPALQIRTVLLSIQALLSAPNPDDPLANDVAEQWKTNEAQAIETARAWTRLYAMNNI
Type of data set: functional.

A short description of data set [7]: HIV-1 AD8 envelope cell-cell fusion blockers – cherry-pick, dose response (AID 652062).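 Further: luciferase signal from cell-cell fusion driven by HIV-1 clade B AD8 Env; potency is for inhibitors of fusion seen as a drop in luminescence.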 In kind it is functional, cell-based.

Cytochrome P450 2C9, sequence (P11712 whole entry): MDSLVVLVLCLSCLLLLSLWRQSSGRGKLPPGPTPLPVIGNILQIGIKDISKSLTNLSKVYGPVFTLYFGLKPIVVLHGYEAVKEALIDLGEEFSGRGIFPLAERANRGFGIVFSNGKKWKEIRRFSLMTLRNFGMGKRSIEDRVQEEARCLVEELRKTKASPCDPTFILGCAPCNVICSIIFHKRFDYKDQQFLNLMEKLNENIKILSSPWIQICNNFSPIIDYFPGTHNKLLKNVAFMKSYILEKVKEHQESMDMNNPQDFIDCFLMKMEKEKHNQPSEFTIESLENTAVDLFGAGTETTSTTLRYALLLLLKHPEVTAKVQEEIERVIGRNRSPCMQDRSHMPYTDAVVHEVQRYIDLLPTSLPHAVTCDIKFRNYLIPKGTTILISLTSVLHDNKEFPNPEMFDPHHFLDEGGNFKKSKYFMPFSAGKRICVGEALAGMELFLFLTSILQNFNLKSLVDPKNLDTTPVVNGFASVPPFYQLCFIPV
Cytochrome P450 2D6, sequence (P10635 whole entry): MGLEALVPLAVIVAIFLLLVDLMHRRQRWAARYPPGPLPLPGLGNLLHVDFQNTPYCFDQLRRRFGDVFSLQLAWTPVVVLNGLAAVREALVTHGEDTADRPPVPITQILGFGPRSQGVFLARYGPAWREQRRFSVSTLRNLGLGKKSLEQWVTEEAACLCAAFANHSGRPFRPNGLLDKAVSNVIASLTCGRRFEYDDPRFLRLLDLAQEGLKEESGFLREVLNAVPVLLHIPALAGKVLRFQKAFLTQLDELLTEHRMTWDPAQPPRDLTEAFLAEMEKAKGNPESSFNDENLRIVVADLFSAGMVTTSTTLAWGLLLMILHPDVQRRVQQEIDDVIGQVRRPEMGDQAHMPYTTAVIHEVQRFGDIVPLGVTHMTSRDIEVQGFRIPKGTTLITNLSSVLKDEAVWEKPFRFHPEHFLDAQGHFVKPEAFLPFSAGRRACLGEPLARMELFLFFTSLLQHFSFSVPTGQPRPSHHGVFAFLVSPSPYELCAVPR
Cytochrome P450 3A4, sequence (P08684 whole entry): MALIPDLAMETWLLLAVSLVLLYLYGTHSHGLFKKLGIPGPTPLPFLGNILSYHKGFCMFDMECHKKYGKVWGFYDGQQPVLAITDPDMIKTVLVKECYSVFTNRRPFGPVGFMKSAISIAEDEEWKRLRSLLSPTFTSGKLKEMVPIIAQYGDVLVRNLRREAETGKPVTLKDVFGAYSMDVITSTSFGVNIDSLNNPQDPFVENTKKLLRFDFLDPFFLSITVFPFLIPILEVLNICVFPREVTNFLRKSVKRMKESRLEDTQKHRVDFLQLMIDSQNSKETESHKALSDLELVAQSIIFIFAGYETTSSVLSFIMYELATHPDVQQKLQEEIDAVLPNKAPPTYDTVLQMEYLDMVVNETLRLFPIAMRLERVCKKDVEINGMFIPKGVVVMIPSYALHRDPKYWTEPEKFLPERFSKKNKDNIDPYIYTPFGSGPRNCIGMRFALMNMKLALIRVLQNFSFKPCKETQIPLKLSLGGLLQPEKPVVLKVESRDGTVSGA

A word on the AC50: it is the midpoint of the concentration-response curve, whichever way the signal moves. Consider `CCCCN(C)CCCNC(=O)C[S+]([O-])Cc1nc(-c2ccc(OC)c(OC)c2)oc1C` (stereo not drawn), for which the half-maximal activity concentration (AC50) entry at Cytochrome P450 2C19 and on Cytochrome P450 2C9 was “inconclusive” each time. One may read the EC50 as the concentration at which the effect is half-maximal. A word on the IC50: it is the concentration needed to halve the response being measured. For the compound `O=C(Nc1cnn(Cc2ccc(F)cc2)c1)C(c1ccccc1)c1ccccc1`, the EC50 in data set [1] is 18.2 µM (active); in [2], 49.5 µM (active). Moreover, the IC50 in [3] is 9.63 µM (not active). In the case of `Cc1ccccc1N=C(S)NCc1ccc2[nH]c3c(c2c1)CCCC3`, the concentration for half-maximal inhibition (IC50) on Nonstructural protein 1 was > 100 µM (active).

Consider `CCOC(=O)C1(Cc2cccc(OC)c2)CCN(Cc2cccc(OCC)c2O)CC1`, for which the IC50 in data set [3] is listed as 8.3 µM (not active). For `O=c1c(-c2ccc(F)cc2)nc2cnc(N3CCOCC3)nc2n1C[C@H]1CCCO1`, the AC50 result on Cytochrome P450 2C19 and at Cytochrome P450 2C9 was “inconclusive” throughout. For the compound `NCCCNC(=O)Cn1c(=O)c2c3c(sc2n(Cc2ccccc2)c1=O)CCCC3`, at Nonstructural protein 1, the IC50 was > 100 µM (active).

For the compound `CN(C)C(=O)c1ccc(-c2ccc3ncnc(N4CCC(C(=O)O)CC4)c3c2)cc1`, the AC50 result at Cytochrome P450 2C9 is “inconclusive”; at Cytochrome P450 1A2 it was 39.8 µM (inconclusive). As for `O=C(CSCc1c(F)cccc1Cl)NCC1CCCO1` (stereo not drawn), the half-maximal activity concentration (AC50) result on Cytochrome P450 2C9 is on record as “inconclusive”. With `O=C(c1ccc([N+](=O)[O-])cc1[N+](=O)[O-])N1CCc2ccccc21`, the concentration giving a half-maximal response (EC50) in [4] is 700 nM (active); in data set [5] it was > 60 µM (not active). Moreover, the IC50 in “cells” was 210 nM (active). Turning to `CCN(CC)S(=O)(=O)c1ccc(C)c(NC(S)=NNC(=O)C2CC2)c1`, in data set [3], the IC50 is given as > 50 µM (not active). For `CN(C)CCCN(C(=O)c1ccc2c(c1)CCCC2)c1nc2ccc(Cl)cc2s1`, the IC50 in data set [6] was > 20 µM (inactive); on Nonstructural protein 1 it was > 100 µM (active). As to `COc1cc(C(=O)NCc2ccc3c(c2)cc(C)n3C)cc(OC)c1OC`, in data set [3], the IC50 is on record as > 50 µM (not active). `O=C(Nc1cccc(C(F)(F)F)c1)c1ccc(Cn2cc(Br)cn2)o1`: the results for the AC50 (in [7]; on Cytochrome P450 2D6) were 29.6 µM (active) and 22.4 µM (inconclusive), respectively. On to `COCCCN=C(S)NNC(=O)C1CC1c1ccc(C(C)(C)C)cc1` (stereo not drawn), for which the IC50 in [3] is > 50 µM (not active). For the compound `C/C(=N\NC(=O)c1ccc(Cl)cc1)c1ccc(Br)s1`, the AC50 on Cytochrome P450 2C19 (read-out: AC50) is 17.8 µM (inconclusive); at Cytochrome P450 2C9 it was “inconclusive”; at Cytochrome P450 3A4 it was 14.1 µM (inconclusive). Further, in [4], the EC50 was 1910 nM (active). Regarding `CC(C)(C)NC[C@H](O)COc1nsnc1N1CCOCC1` [TIMOLOL], on Cytochrome P450 2C9, the AC50 entry was “inactive”.

Values taken from ChEMBL document CHEMBL1201862, “PubChem BioAssay data set” (2004).
